Measured values as given in patent US20220280507A1, “USES OF 5-METHYLTETRAHYDROFOLATE AND ITS COMPOSITION” (Lianyungang Jinkang Hexin Pharmaceutical Co., Ltd., priority 2019, published 2022).

Columns and labels:
[1] = tested on: IL-1β; experiment: Alcoholic fatty liver model, IL-1β in hippocampus tissue (ELISA); type: in vivo, SD rats; settings: liquor model, n=16
Experimental: According to their weight, they were randomly divided into vehicle control group (purified water, ig), model control group (liquor, 10 ml·Kg−1), positive control group (bicyclol, 50 mg·Kg−1, ig), folic acid calcium salt high-dose group (4 mg·Kg−1), folic acid calcium salt medium-dose group (2 mg·Kg−1), folic acid calcium salt low-dose group (1 mg·Kg−1), in half female and half male, and 16 rats in each group. Purified water was used as a negative control, and bicyclol (place of origin: Beijing Xiehe Pharmaceutical Factory, specification: 25 mg/tablet, batch number: H20040467) was used as a positive control drug. Route of administration: all were administered by oral gavage. Dosage of administration: 1 mg·Kg−1, 2 mg·Kg−1, and 4 mg·Kg−1. Frequency of administration: once a day for 60 consecutive days.
Method of administration: administration started at prescribed doses on the day of modeling for 60 consecutive days and ended at the 60th day. At the same time, rats in each group were weighed every other week during administration period to monitor their body weight changes. On the 61st day, rats were dissected and serum was collected for determination of triglyceride (TG), total cholesterol (TC), malondialdehyde (MDA), superoxide dismutase (SOD) and liver histopathologic examination. The brain tissue of rats was taken out, and hippocampus tissue was separated on ice plate, prepared to homogenate with a mass fraction of 10% with purified water, then the homogenate was centrifuged to obtain supernatant. ELISA was used to detect the levels of inflammatory factors TNF-α and IL-1β in hippocampus tissue with continuous spectrum scanning microplate reader.

[2] = tested on: IL-6; experiment: LPS-induced inflammatory response in astrocytes, IL-6 release (ELISA); type: cell-based, Kunming mice; settings: culture supernatant, LPS 1 μg·ml-1 + substance 10 μg·ml-1, 24 h, n=6
Source text: Experiment 9 Inhibition of 5-Methyltetrahydrofolate and Curcumin on LPS-Induced Inflammatory Response in Astrocytes
The cerebral cortex of Kunming mice at 1˜2 d was taken out under aseptic conditions, washed 3 times with cold PBS after removing residual meninges and blood vessels, prepared into single cell suspension by blowing, centrifuged, the supernatant was discarded, and the precipitant was resuspended in AST basic medium (high-sugar DMEM containing 10% FBS). The suspension was inoculated into a culture flask coated with poly-L-lysine (0.1 mg/ml), and cultured in a CO2 incubator. After 24 h, tissue debris and non-adherent cells were removed by replacing the medium. Afterwards, the medium was replaced every 3 days until the cells reached 80% confluence, then the flask was placed on a constant temperature rotary shaker, where the suspension was centrifuged at 180 r/min, 37° C. for 18 h to remove oligodendrocytes and microglia from the upper layer. Then trypsin digestion was used for subculture. […]
LPS (1 μg·ml-1), LPS (1 μg·ml-1)+curcumin (10 μg·ml-1), LPS (1 μg·ml-1)+5-MTHF-Ca (10 μg·ml-1); experimental group: LPS (1 μg·ml-1)+curcumin (5 μg·ml-1)+5-MTHF-Ca (5 μg·ml-1). After 24 h, the culture supernatant was collected, and the cytokines IL-6, IL-1β and TNF-α were detected by ELISA.

[3] = tested on: homocysteine (Hcy); experiment: Homocysteine (Hcy) in plasma of alcohol drinking rats; type: in vivo, SD rats; settings: plasma 6 h after Erguotou 20 ml·Kg−1
Experimental: Experiment 2 Effect of 5-methyltetrahydrofolate on homocysteine (Hcy) in plasma of alcohol drinking rats.
30 SPF-grade SD rats were chosen in half male and half female, and divided into 5 groups with 6 rats in each group, including normal group, model group, positive drug group (Weihe Liver Protectant), 5-methyltetrahydrofolate administration groups (4 mg·Kg−1 medium dose group, 8 mg·Kg−1 high dose group, respectively). After fasting for 12 h, the administration groups were given Weihe Liver Protectant at 50 mg·kg−1, 5-methyltetrahydrofolate (Jinkang Hexin product) at 4 mg·Kg−1, 5-methyltetrahydrofolate (Jinkang Hexin product) at 8 mg·Kg−1, respectively. […] 6 h after drinking, blood was collected from the eye socket, treated with 0.5% EDTA-Na for anticoagulation (10 ml/L), immediately cooled in an ice bath, and centrifuged at 4° C. (3500r/min) for 15 min within 30 min. Plasma was collected and stored at −20° C. The plasma Hcy concentration was determined with high pressure liquid chromatography-fluorescence detection method.

[4] = tested on: intestinal barrier function; settings: chronic alcohol-fed rats, 4 mg·Kg−1
Experimental: 96 SPF-grade SD rats, half female and half male, were chosen with an average weight of 176-220 g at the beginning of the experiment, and randomly divided into vehicle control group (glucose, 10 g·Kg−1) and model control group (liquor, 6 g·Kg−1), 5-methyltetrahydrofolate calcium group (folic acid, 4 mg·Kg−1, glucose, 10 g·Kg−1), half female and half, 16 rats in each group. […] The day on which the dose of alcohol reached 6g·Kg−1 was defined as the first day of modeling. The intestinal permeability of rats was measured at Weeks 2 and 8, then 5 rats were sacrificed at random, blood and liver tissues were taken.
An oral sugar test was carried out to evaluate intestinal permeability. After fasting for 8 h, the rats were given 2.0 ml of sugar solution,
with lactulose (107 mg/kg), mannitol (30 mg/kg), sucralose (15 mg/kg) and sucrose (570 mg/kg). The rats were individually housed in metabolic cages, and urine was collected. The sugar concentration in the urine was determined by gas chromatography. Blood samples were used to analyze endotoxin in serum with Kinetic-QLC kit.

## 5-methyltetrahydrofolate calcium
[1]; 1 mg·kg−1·d−1 ig 60 d
  IL-1β in hippocampus tissue: 63.05 ± 5.31 μg · g^−1 prot
[1]; 2 mg·kg−1·d−1 ig 60 d
  IL-1β in hippocampus tissue: 63.24 ± 13.44 μg · g^−1 prot
[1]; 4 mg·kg−1·d−1 ig 60 d
  IL-1β in hippocampus tissue: 55.21 ± 3.59 μg · g^−1 prot
[2]
  IL-6: 993.24 ± 52.05 pg/mL

## CN1c2c([nH]c(N)nc2=O)NCC1CNc1ccc(C(=O)N[C@@H](CCC(=O)O)C(=O)O)cc1 (stereo partly drawn) [5-methyltetrahydrofolate, N-[4-[[(2-amino-1,4,5,6,7,8-hexahydro-4-oxo-5-methyl-(6S), -(6R), and (6R,S)-pteridyl)methyl)amino)toluoyl-glutamic acid]
[3]; 4 mg·Kg−1, n=6
  Hcy: 3.13 ± 1.26 µmol/L
[3]; 8 mg·Kg−1, n=6
  Hcy: 2.32 ± 1.49 µmol/L
[4]
  Intestinal barrier function: can improve intestinal barrier function in the presence of alcohol
  Serum endotoxin level: reduce serum endotoxin level
